Experimental data published in US20200360331A1, “COMPOSITIONS COMPRISING 15-HEPE AND/OR 15-HETrE AND METHODS OF TREATING OR PREVENTING CARDIOMETABOLIC DISEASE, METABOLIC SYNDROME, AND/OR RELATED DISEASES” (Afimmune Limited, priority 2019, published 2020).
“Also recorded” adds a separate entry of the source.

Tests used:
[1] = test system: TβR-II (type II TGF-β receptor); test: Sucrose density gradient analysis in Mv1Lu cells, TβR-II; format: cell-based, mink; conditions: summary, free acid or ethyl ester form
Procedure: Sucrose gradient ultracentrifugation and confocal microscopy were used to identify 15-HEPE induced microdomain translocation of TGF-β receptors by sucrose. Sucrose density gradient analysis of TGF-β receptors was conducted in the plasma membranes of Mv1Lu cells (mink lung epithelial cell) treated with 100 μM of 15-HEPE and an equal volume of DMSO (dimethyl sulfoxide) at 37° C. for 0, 1, 4, and 24 hours, and the cell lysates from these treated cells were subjected to sucrose density gradient ultracentrifugation. The sucrose gradient fractions were then analyzed by Western blot analysis using anti-TβR-I (type I TGF-β receptor), anti-TβR-II (type II TGF-β receptor), anti-TβR-III (type III TGF-β receptor, betaglycan), anti-EGFR (epidermal growth factor receptor), and anti-caveolin-1 antibodies. The lipid raft/caveolae, and non-lipid raft microdomain localization of TβR-I, TβR-II, TβR-III, EGFR and caveolin-1 in the plasma membrane of untreated cells or cells treated with 15-HEPE were assessed to determine the effects of 15-HEPE on the membrane microdomain localization of the TGF-β receptors.
A 15-HEPE sucrose density gradient analysis of TGF-β receptors was conducted in the plasma membranes of mink lung epithelial cell (Mv1 Lu) cells treated with 100 μM of 15-HEPE and an equal volume of dimethyl sulfoxide (DMSO) at 37° C. for 0, 1, 4, and 24 hours, and the cell lysates from these treated cells were subjected to sucrose density gradient ultracentrifugation. The sucrose gradient fractions were then analyzed by Western blot analysis using anti-TβR-I (type I TGF-β receptor—FIG. 18C), anti-TβR-II (type II TGF-β receptor—FIG. 18D), anti-TβR-III (type III TGF-β receptor, betaglycan—FIG. 18E), anti-EGFR (epidermal growth factor receptor—FIG. 18F), and anti-caveolin-1 antibodies (FIG. 18G). Fractions 4 to 5 contained lipid rafts/caveolae whereas fractions 7-10 were non-lipid raft fractions. […] Stars (★) indicate 15-HEPE increased abundance of TβR-I (24 hours) in the fraction in comparison with that of the control and shorter treatment durations (FIG. 18C). […] The triangles (▾) indicate translocation and decreased abundance of TβR-II in the fraction in comparison with control cells (FIG. 18D).

[2] = test system: TGF-β induced epithelial mesenchymal transition (EMT) protein production; test: TGF-β induced EMT protein production in HepG2 cells; format: cell-based, human; conditions: increasing doses for 1 hour, then 200 pM TGF-β for 48 hours
Procedure: The effects of 15-HEPE on TGF-β-induced signaling and cellular responses were determined. To test the effect of 15-HEPE on TGF-β-induced signaling, the activities of 15-HEPE to regulate TGF-β-stimulated Smad2 phosphorylation and nuclear translocation, both of which are key signaling events leading to TGF-β-induced cellular responses, were tested. One important biological activity of TGF-β is transcriptional activation of genes responsible for epithelial-mesenchymal transition (EMT), which is a crucial event in wound healing, tissue fibrosis, and cancer progression. The effect of 15-HEPE on TGFβ-induced epithelial mesenchymal transition related proteins (such as fibronectin, PAI-1, and N-cadherin etc.) expression in HepG2 and […] cells were assessed. HepG2 cells (human hepatoma cell line) were treated in increasing doses of 15-HEPE stage II in DMEM containing 0.1% of FBS for 1 hour and continually stimulated with or without 200 picomolar (pM) of TGF-β for 48 hours.
HepG2 cells (human hepatoma cell line) were treated in increasing doses of 15-HEPE stage II in DMEM containing 0.1% of FBS for 1 hour and continually stimulated with or without 200 picomolar (pM) of TGF-β for 48 hours. The two panels shown in FIG. 18A are two separate experiments run under the same experimental conditions.

[3] = test system: TGF-β-stimulated intracellular signaling (SMAD2/3 phosphorylation); test: TGF-β-stimulated SMAD2/3 phosphorylation in LX2 liver stellate cells; format: cell-based, human; conditions: 0 μM to 100 μM for 24 hours, then 30 min TGF-β stimulation
UUO mice [4] = test: UUO study: kidney hydroxyproline content; format: in vivo, C57BL/6 mice
Procedure: (§1) UUO Surgery: On day 0 of the study, UUO surgery was performed on mice under pentobarbital sodium anesthesia. The mouse's hair was first shaved and then abdomen cut open to exteriorize the mouse's left ureter. The ureter was ligated 4-0 nylon sutures at two points. The mouse's peritoneum and skin were then closed with sutures, and the mouse transferred to a clean cage until recovered from the anesthesia. Sham operated mice had their left ureter exposed but not ligated.
Measurement of Kidney Biochemistry: To quantify kidney hydroxyproline content, frozen left kidney samples were processed by an alkaline-acid hydrolysis method as follows: kidney samples were dissolved in 2 normal (N) sodium hydroxide (NaOH) at 65° C. and autoclaved at 121° C. for 20 minutes. The lysed samples (400 μL) were acid-hydrolyzed with 400 μL of 6N hydrochloride acid (HCl) at 121° C. for 20 minutes, and neutralized with 400 μL of 4N NaOH containing 10 mg/mL of activated carbon. An AC buffer (e.g., 2.2M acetic acid/0.48M citric acid, 400 μL) was added to the samples, followed by centrifugation to collect the supernatant. A standard curve of hydroxyproline was constructed with serial dilutions of trans-4-hydroxy-L-proline (Sigma-Aldrich, USA) starting at 16 μg/mL. The prepared samples and standards (e.g., each 400 μL) were mixed with 400 μL chloramine T solution (Wako Pure Chemical Industries, Japan) and incubated for 25 minutes at room temperature. The samples were then mixed with Ehrlich's solution (e.g., 400 μL) and heated at 65° C. for 20 minutes to develop the color. After samples were cooled on ice and centrifuged to remove precipitates, the optical density of each supernatant was measured at 560 nanometers (nm). The concentrations of hydroxyproline were calculated from the hydroxyproline standard curve. Protein concentrations of kidney samples were determined using a bicinchoninic (BCA) protein assay kit (Thermo Fisher Scientific, USA) and used to normalize the calculated hydroxyproline values. Kidney hydroxyproline contents were expressed as microgram (μg) per mg protein.

[5] = UUO study: body weight, kidney weight, general condition; format: in vivo; conditions: UUO mice
Procedure: as §1, with “ligated. […]” for “ligated.”
Animals: Seven-week-old female C57BL/6 mice (i.e., animals) were obtained from Japan SLC, Inc. (Japan) and were housed and fed with a normal diet (CE-2; CLEA Japan, Japan) under controlled conditions. The animals were maintained in a specific-pathogen free (SPF) facility under controlled conditions of temperature (e.g., 23±2° C.), humidity (e.g., 45±10%), lighting (e.g., 12-hour artificial light and dark cycles; light from 8:00 to 20:00) and air exchange. A high pressure was maintained in the experimental room to prevent contamination of the facility. The animals were housed in TPX cages (CLEA Japan) with a maximum of 4 mice per cage. Sterilized Paper-Clean (Japan SLC) was used for bedding and replaced once a week. Sterilized solid normal diet was provided ad libitum, being placed in a metal lid on the top of the cage. Pure water was also provided ad libitum from a water bottle equipped with a rubber stopper and a sipper tube. Water bottles were replaced once a week, cleaned, and sterilized in an autoclave and reused. Mice were identified by ear punch and each cage was labeled with a specific identification code.
Animal Monitoring and Sacrifice: The viability, clinical signs and behavior for the mice were monitored daily. Individual body weight was measured daily before treatment during the treatment period. […] The animals were sacrificed by exsanguination through direct cardiac puncture under isoflurane anesthesia (Pfizer Inc.) at Day 14.

UUO mice [6] = test: UUO study: Sirius red staining of kidney sections, fibrosis area; format: in vivo, C57BL/6 mice; conditions: for Sirius red-positive area: kidney
Procedure: as §1
Histopathological analysis: To visualize collagen deposition, kidney sections were stained using picro-Sirius red solution (Waldeck, Germany). For quantification of interstitial fibrosis area, bright field images in the corticomedullary region were captured using a digital camera (e.g., DFC295; Leica Microsystems, Germany) at 200-fold magnification, and the positive areas in 5 fields/section were measured using ImageJ software (National Institute of Health, USA).

[7] = 50 mg/kg PO QD Day 0-13, Day 14
[8] = 250 mg/kg PO QD Day 0-13, Day 14

Structure (SMILES)	translocation and degradation of type II TGF-β receptors [1]	TGF-β induced EMT (pro-fibrotic) protein production [2]	TGF-β-stimulated intracellular signaling (SMAD2/3 phosphorylation) [3]	kidney hydroxyproline contents compared with the Vehicle group (UUO mice [4]; 5 mg/kg)	Kidney hydroxyproline (UUO mice [4]; 5 mg/kg PO QD Day 0-13, Day 14)	kidney hydroxyproline contents compared with the Vehicle group (UUO mice [4]; 50 mg/kg)	Kidney hydroxyproline (UUO mice [4]; [7])	kidney hydroxyproline contents compared with the Vehicle group (UUO mice [4]; 250 mg/kg)	Kidney hydroxyproline (UUO mice [4]; [8])	Body Weight ([5]; 5 mg/kg PO QD Day 0-13, Day 14)	Body Weight [5, 7]	Body Weight [5, 8]	fibrosis area compared with the Vehicle group (UUO mice [6]; 5 mg/kg, Mann-Whitney U test (p<0.1))	fibrosis area compared with the Vehicle group (UUO mice [6]; 50 mg/kg, Bonferroni Multiple Comparison)	fibrosis area compared with the Vehicle group (UUO mice [6]; 50 mg/kg, Mann-Whitney U test (p<0.1))	fibrosis area compared with the Vehicle group (UUO mice [6]; 250 mg/kg, Mann-Whitney U test (p<0.1))	Sirius red-positive area (UUO mice [6]; 5 mg/kg PO QD Day 0-13, Day 14)	Sirius red-positive area (UUO mice [6]; [7])	Sirius red-positive area (UUO mice [6]; [8])
CCC=CCC(O)C=CC=CCC=CCC=CCCCC(=O)OCC (stereo not shown) [15-HEPE EE]	induced translocation and degradation of type II TGF-β receptors	blocked TGF-β induced pro-fibrotic protein production	inhibited TGF-β induced intracellular signaling (SMAD2/3)	–	–	–	–	–	–	–	–	–	–	–	–	–	–	–	–
CCCCCC(O)/C=C/C=C\C/C=C\CCCCCCC(=O)O (stereo not shown) [DS109, 15-hydroxy-eicosa-8Z,11Z,13E-trienoic acid]	–	–	–	significant decreases	9.94 ± 2.02 μg/mg total protein	no significant difference	13.94 ± 6.44 μg/mg total protein	significant decreases	8.30 ± 1.04 μg/mg total protein	19.1 ± 0.9 g	18.6 ± 0.6 g	18.6 ± 0.7 g	tended to decrease; also recorded: reduction trend	tended to decrease	tended to decrease; also recorded: reduction trend	tended to decrease; also recorded: reduction trend	4.23 ± 1.90%	3.58 ± 1.04%	4.71 ± 0.96%
